This is an account of results in US7838511B2, “Compositions and methods for treating, preventing and/or ameliorating cancers, the onset of cancers or the symptoms of cancers” (The Board of Regents of the University of Texas System, priority 2003, dated 2010).

For data set [1], the system named is SW-480 colon cancer cell line. The experiment in a line: SW-480 colon cancer cell number. Type of data set: cell-based. The conditions noted are these: mean ± SEM. The procedure:
(§1) PC-NSAIDs were also tested on another type of cancer, a colon cancer cell line, SW-480.

The subject of data set [2] is SW-480 colon cancer cell line. Briefly: SW-480 colon cancer cell DNA synthesis. Type of data set: cell-based. The conditions noted are these: mean ± SEM. The procedure: as §1
For data set [3], the system named is MCF-7 breast cancer cells. Briefly: MCF-7 breast cancer cell growth / cell number (MTT assay). Format: cell-based. The conditions noted are these: for Cell number (% control): mean ± SEM. The procedure:
Using MCF-7 breast cancer cells grown in culture, a dose-response to aspirin (1.25 to 20 mM) was performed initially. After 48 hours of exposure to the various aspirin (acetyl salicylic acid, ASA) concentrations, mitochondrial 3-(4,5-dimethylthiazol-2-yl)-2,5-diphenyltetrazolium bromide (MTT) assays were performed. The MTT assay produces a measure of cell number and is used to monitor growth or inhibition of growth of the MCF-F breast cancer cells, i.e., measure the relative growth inhibitor activity of the compositions.
To test the relative growth inhibitor activity of phospholipid associated aspirin (PC-ASA) preparations, PC-ASA preparations were made having ASA concentrations that gave no more than 50% inhibition of growth (e.g., 2.5 and 5 mM) as shown in FIG. 2. In this example and in all subsequent examples, cell growth was assessed by measuring mitochondrial 3-(4,5-dimethylthiazol-2-yl)-2,5-diphenyltetrazolium bromide (MTT) activity. Those concentration of ASA were chosen so that any PC effects could be readily observed. After the preparation of the PC-ASA preparation, MCF-7 breast cancer cells were exposed for 48 hours to either ASA or a PC-ASA having the same ASA concentration.
MCF-7 breast cancer cells were grown in culture and exposed to aspirin (acetyl salicylic acid, ASA) and PC-ASA at equimolar concentrations. An assay was performed to estimate cell number.
A general note: Tetrazolium dyes change colour on reduction, which living cells bring about.

The test system of data set [4] is MCF-7 breast cancer cells. The experiment in a line: MCF-7 DNA synthesis (thymidine incorporation into cellular DNA). Type of data set: cell-based. The conditions noted are these: 5 mM, mean ± SEM. The procedure:
Studies were further performed to determine the mechanism by which ASA and PC-ASA reduced cell number. MCF-7 cells were again grown in the absence or presence of ASA and PC-ASA, and cell proliferation was assessed by measurement of titriated thymidine incorporation into cellular DNA.
On the technique in general: Dividing cells build labelled thymidine or BrdU into new DNA.

The subject of data set [5] is Leiomyosarcoma of the bladder. The experiment in a line: Bladder cancer (leiomyosarcoma) in a cat, ultrasonographic follow-up. Type of data set: in vivo, domestic cat. The settings on record: assessed by ultrasound. The procedure: To confirm that the PC-NSAIDs also have anti-cancer activity in vivo, a study has been performed on a domestic cat. As summarized in Table 3, the animal was diagnosed in December of 2003 with Leiomyosarcoma of the bladder, a particularly aggressive form of cancer.
The cat was treated surgically for resection of the tumor and was then placed on standard Vincristine chemotherapy for three weeks. […] Eventually, the tumor began to grow again and a treatment of lecithin combined with an NSAID, piroxicam, was begun. […] The cat is continuing to be treated with PC-piroxicam as of this filing.

In the next data set the test system is MCF-7 cells. Briefly: Lactate dehydrogenase (LDH) release (necrosis) of MCF-7 cells. Format: cell-based. The settings on record: 0.6 mM, 5 hours; FIG. 4. The procedure: The growth inhibitor activity of the PC-ASA preparations on MCF-7 cells could be through increased apoptosis or necrosis or inhibition of cell proliferation. To differentiate between the first two possibilities, the effect of the PC-ASA preparations on release of the cytosolic enzyme lactate dehydrogenase (LDH) as a measure of necrosis were performed. For this study, MCF-7 cells were exposed to 2.5 and 5 mM ASA or PC-ASA preparations for 48 hours, as before. The media was collected and assayed for LDH activity (the assay is a kit available from Sigma Chemical Co., St. Louis, Mo.). To act as a positive control, some cells were exposed to a bile acid, 0.6 mM sodium deoxycholate (DOC), for 5 hours before LDH assay. […] Yet the ASA and PC-ASA preparations clearly reduce the number of MCF-7 cells at these concentrations. The most likely explanation for these findings is that the NSAIDs are inducing apoptosis rather than necrosis. This possibility is consistent with reports in the literature (see, e.g., Xiaojun L, Xie W, Reed D, Bradshaw W S, Simmons D L. Nonsteroidal antiinflammatory drugs cause apoptosis and induce cyclooxygenases in chicken embryo fibroblasts. Proc Natl Acad Sci USA 1995; 92:7961-7965.). Another possibility is that the PC-NSAID act by inhibiting cell proliferation.

As to phosphatidylcholine [PC], the “Cell number (% control)” value in data set [1] (1 mM) was found to be 106 ± 13 % control; in data set [1] (5 mM), 106 ± 7 % control; in data set [3] (MCF-7, 5 mM), 114 ± 3 % Control. Besides, the “DNA synthesis (% control)” value in data set [2] (1 mM) is listed as 97 ± 5 % control; in data set [2] (5 mM) it was 65 ± 4 % control; in data set [4], 41 ± 1 % Control. Moreover, in data set [3] (2.5 and 5 mM, 48 hours, MTT, FIG. 3), the “inhibiting the growth of the breast cancer cells (in words)” value is “did not adversely affect the growth of the cells”. Also, the “inhibiting the growth of the breast cancer cells (in words, Table 1)” value in data set [3] (MCF-7, 5 mM, equimolar) is given as “not effective at inhibiting the growth of the cells”.

On to `CC[C@]1(O)C[C@H]2CN(CCc3c([nH]c4ccccc34)[C@@](C(=O)OC)(c3cc4c(cc3OC)N(C=O)[C@H]3[C@@](O)(C(=O)OC)[C@H](OC(C)=O)[C@]5(CC)C=CCN6CC[C@]43[C@@H]65)C2)C1` [Vincristine], for which, in data set [5], the “effect on tumor growth (in words)” value is listed as “did not stop the remaining tumor growth”.

Consider `CC(C)Cc1ccc(C(C)C(=O)O)cc1` (stereo not drawn) [IBU, ibuprofen], for which the “Cell number (% control)” value in data set [1] (1 mM) came to 81 ± 2 % control. Also, the “DNA synthesis (% control)” value in data set [2] (1 mM) was 79 ± 1 % control.

sodium deoxycholate [DOC]: in the data set on MCF-7 cells, the “LDH release (necrosis), positive control” value was “caused the release of cellular LDH”.

Take `CC(=O)Oc1ccccc1C(=O)O` [ASA, acetyl salicylic acid]: the “Cell number (% control)” value worked out at 68 ± 3 % control in data set [1] (5 mM) and 55 ± 3 % Control in data set [3] (MCF-7, 5 mM). Besides, the “DNA synthesis (% control)” value in data set [2] (5 mM) is given as 102 ± 4 % control; in data set [4], 85 ± 8 % Control. The inhibition of growth entry in data set [3] (ASA 2.5 and 5 mM, MTT, FIG. 2) is listed as “no more than 50%”. Moreover, in data set [3] (MTT assay, 48 hours exposure, dose-response 1.25 to 20 mM, FIG. 2), the “ASA concentration with inhibitor effect on growth of the cells” value was at least 2.5 mM.
